# How the values were obtained:
# [1] = system: mustard; assay: Test E post-emergence; type: in vivo, Brassica arvensis
# Text: (§1) The containers used were 25 cm diameter plastic pots filled with fertilized and limed Fallsington silt loam. Plantings of the following weed species were made twice, at a 10-day interval: mustard (Brassica arvensis), cocklebur (Xanthium spp.), morningglory (Ipomoea hederacea), cassia (Cassia tora), velvetleaf (Abutilon theophrasti), alfalfa (used as an indicator species), kochia (Kochia scoparia), sesbania (Sesbania exaltata), Russian thistle (Salsola kali), jimsonweed (Datura stramonium),and nutsedge (Cyperus rotundus). In addition, wheat and barley were planted in separate 15 cm diameter plastic pots filled with the same soil at the time of the early planting only. All plantings were treated with the test chemicals dissolved in a non-phytotoxic solvent immediately following completion of the second planting operation. At this time, the wheat was around 15-17.5 cm tall and the barley 12.5 to 15 cm tall, both in the 2-leaf stage of growth. The weed species of the earliest planting date were from 2.5 to 12.5 cm tall. The rates of application selected were 0.004, 0.007, 0.015 and 0.030 kg/ha for the weed phase and 0.12, 0.25 and 0.50 kg/ha for wheat and barley. The post-emergence part of this test was visually rated for plant response 21 days after treatment, and the pre-emergence part 28 days after treatment.
# [2] = system: cocklebur; assay: Test E post-emergence; type: in vivo, Xanthium spp.
# Text: as §1
# [3] = system: nutsedge; assay: Test E post-emergence; type: in vivo, Cyperus rotundus
# Text: as §1
# [4] = system: wheat; assay: Test E post-emergence; type: in vivo; conditions: 1/2 kg/ha
# Text: as §1
# [5] = system: barley; assay: Test E post-emergence; type: in vivo; conditions: 1/2 kg/ha
# Text: as §1
# [6] = system: milkweed vine; assay: Test I perennial foliage spray; type: in vivo, Morrenia odorata
# Text: (§2) Five-inch in diameter plastic pots were filled with a 50-50 mixture of Fallsington silt loam soil and sand and seeds of the following planted (one plant species per pot): milkweed vine (Morrenia odorata), plantain (Plantago spp.), burdock (Arctium minus), field bindweed (Convolvulus arvensis), dandelion (Taraxacum officinale), horsenettle (Solanum carolinense), bermudagrass (Cynodon dactylon), quackgrass (Agropyron repens), dallisgrass (Paspalum dilatatum) and johnsongrass (Sorghum halepense). The pots were placed in the greenhouse and the plants grown for several weeks.
# (§3) The compound evaluated was diluted with a non-phytotoxic solvent and sprayed on the plant foliage. Untreated and solvent controls were included for comparison. One and eight weeks after treatment, a visual rating of the compound's effects on plant growth were made.
# [7] = system: plantain; assay: Test I perennial foliage spray; type: in vivo, Plantago spp.
# Text: as §2, §3
# [8] = system: burdock; assay: Test I perennial foliage spray; type: in vivo, Arctium minus
# Text: as §2, §3
# [9] = system: field bindweed; assay: Test I perennial foliage spray; type: in vivo, Convolvulus arvensis
# Text: as §2, §3
# [10] = system: dandelion; assay: Test I perennial foliage spray; type: in vivo, Taraxacum officinale
# Text: as §2, §3
# [11] = system: horsenettle; assay: Test I perennial foliage spray; type: in vivo, Solanum carolinense
# Text: as §2, §3
# [12] = system: bermudagrass; assay: Test I perennial foliage spray; type: in vivo, Cynodon dactylon; conditions: 1 week
# Text: as §2, §3
# [13] = system: quackgrass; assay: Test I perennial foliage spray; type: in vivo, Agropyron repens
# Text: as §2, §3
# [14] = system: dallisgrass; assay: Test I perennial foliage spray; type: in vivo, Paspalum dilatatum
# Text: as §2, §3
# [15] = system: johnsongrass; assay: Test I perennial foliage spray; type: in vivo, Sorghum halepense
# Text: as §2, §3
# [16] = system: broadleaves; assay: Test K field post-emergence; type: in vivo; conditions: 16 weeks
# Protocol: (§4) The response of a number of noxious weed species to post-emergence applications of the same compound as used in Test J was studied in another field test. At the time of treatment, one month after mowing, the mixed vegetation was approximately 15 cm tall. The chemical was applied in water containing 0.2% of Surfactant WK® at an overall volume of 500 l/ha. Each treatment was replicated three times. Approximately 5 cm of rainfall was recorded 4 days after treatment and an additional 37 cm fell before weed control ratings were made 16 weeks after treatment.
# [17] = system: broomsedge; assay: Test K field post-emergence; type: in vivo; conditions: 16 weeks
# Protocol: as §4
# [18] = system: dewberry; assay: Test K field post-emergence; type: in vivo; conditions: 16 weeks
# Protocol: as §4
# [19] = system: golden rod; assay: Test K field post-emergence; type: in vivo; conditions: 16 weeks
# Protocol: as §4
# [20] = system: grasses; assay: Test K field post-emergence; type: in vivo; conditions: 16 weeks
# Protocol: as §4
# [21] = system: mixed vegetation, overall; assay: Test K field post-emergence; type: in vivo; conditions: 16 weeks
# Protocol: as §4
# [22] = system: poison ivy; assay: Test K field post-emergence; type: in vivo; conditions: 16 weeks
# Protocol: as §4
# [23] = system: purpletop; assay: Test K field post-emergence; type: in vivo; conditions: 16 weeks
# Protocol: as §4
smiles,measurement,setting,value
COc1nc(NC(=O)NS(=O)(=O)c2ccccc2C(=O)OC(C)C)nc(OC)n1 [drawing 589],response rating,[1]; 1/32 kg/ha,10C
same,response rating,[1]; 1/64 kg/ha,10C
same,response rating,[1]; 1/128 kg/ha,10C
same,response rating,[1]; 1/256 kg/ha,10C
same,response rating,[2]; 1/32 kg/ha,10C
same,response rating,[2]; 1/64 kg/ha,10C
same,response rating,[2]; 1/128 kg/ha,10C
same,response rating,[2]; 1/256 kg/ha,10C
same,response rating,[3]; 1/32 kg/ha,10G
same,response rating,[4],2G
COc1nc(C)nc(NC(=O)NS(=O)(=O)c2ccccc2C(=O)OC(C)C)n1 [drawing 590],response rating,[1]; 1/32 kg/ha,10C
same,response rating,[1]; 1/64 kg/ha,10C
same,response rating,[1]; 1/128 kg/ha,10C
same,response rating,[1]; 1/256 kg/ha,10C
same,response rating,[2]; 1/32 kg/ha,10C
same,response rating,[2]; 1/64 kg/ha,10C
same,response rating,[2]; 1/128 kg/ha,10C
same,response rating,[2]; 1/256 kg/ha,10C
same,response rating,[3]; 1/32 kg/ha,10C
same,response rating,[3]; 1/256 kg/ha,3G
same,response rating,[5],5G
COC(=O)c1ccccc1S(=O)(=O)NC(=O)Nc1nc(C)cc(C)n1 [drawing 611],plant response rating,"[6]; 1 week, 1/4 kg/ha",0
same,plant response rating,"[6]; 1 week, 1/8 kg/ha",0
same,plant response rating,"[6]; 8 weeks, 1/4 kg/ha",10C
same,plant response rating,"[6]; 8 weeks, 1/8 kg/ha",10C
same,plant response rating,"[7]; 1 week, 1/4 kg/ha",0
same,plant response rating,"[7]; 1 week, 1/8 kg/ha",0
same,plant response rating,"[7]; 8 weeks, 1/4 kg/ha",10C
same,plant response rating,"[7]; 8 weeks, 1/8 kg/ha",10C
same,plant response rating,"[8]; 1 week, 1/4 kg/ha",0
same,plant response rating,"[8]; 1 week, 1/8 kg/ha",0
same,plant response rating,"[8]; 8 weeks, 1/4 kg/ha",10C
same,plant response rating,"[8]; 8 weeks, 1/8 kg/ha",4C
same,plant response rating,"[9]; 1 week, 1/4 kg/ha",2C
same,plant response rating,"[9]; 1 week, 1/8 kg/ha",0
same,plant response rating,"[9]; 8 weeks, 1/4 kg/ha",8C
same,plant response rating,"[9]; 8 weeks, 1/8 kg/ha",7C
same,plant response rating,"[10]; 1 week, 1/4 kg/ha",0
same,plant response rating,"[10]; 1 week, 1/8 kg/ha",0
same,plant response rating,"[10]; 8 weeks, 1/4 kg/ha",10C
same,plant response rating,"[10]; 8 weeks, 1/8 kg/ha",10C
same,plant response rating,"[11]; 1 week, 1/4 kg/ha",1C
same,plant response rating,"[11]; 1 week, 1/8 kg/ha",0
same,plant response rating,"[11]; 8 weeks, 1/4 kg/ha",10C
same,plant response rating,"[11]; 8 weeks, 1/8 kg/ha",5C
same,plant response rating,[12]; 1/4 kg/ha,6C
same,plant response rating,[12]; 1/8 kg/ha,5C
same,plant response rating,"[13]; 1 week, 1/4 kg/ha",7C
same,plant response rating,"[13]; 1 week, 1/8 kg/ha",6C
same,plant response rating,"[13]; 8 weeks, 1/4 kg/ha",10C
same,plant response rating,"[13]; 8 weeks, 1/8 kg/ha",10C
same,plant response rating,"[14]; 1 week, 1/4 kg/ha",6C
same,plant response rating,"[14]; 1 week, 1/8 kg/ha",6C
same,plant response rating,"[14]; 8 weeks, 1/4 kg/ha",10C
same,plant response rating,"[15]; 1 week, 1/4 kg/ha",9C
same,plant response rating,"[15]; 1 week, 1/8 kg/ha",8C
same,plant response rating,"[15]; 8 weeks, 1/4 kg/ha",10C
same,plant response rating,"[15]; 8 weeks, 1/8 kg/ha",10C
COC(=O)c1ccccc1S(=O)(=O)NC(=O)Nc1nc(C)cc(C)n1 [drawing 613],mean % weed control,[16]; 1.0 kg/ha,96%
same,mean % weed control,[16]; 2.0 kg/ha,98%
same,mean % weed control,[16]; .5 kg/ha,91%
same,mean % weed control,[17]; 1.0 kg/ha,73%
same,mean % weed control,[17]; 2.0 kg/ha,86%
same,mean % weed control,[17]; .5 kg/ha,71%
same,mean % weed control,[18]; 1.0 kg/ha,100%
same,mean % weed control,[18]; 2.0 kg/ha,100%
same,mean % weed control,[18]; .5 kg/ha,97%
same,mean % weed control,[19]; 1.0 kg/ha,100%
same,mean % weed control,[19]; 2.0 kg/ha,100%
same,mean % weed control,[19]; .5 kg/ha,100%
same,mean % weed control,[20]; 1.0 kg/ha,84%
same,mean % weed control,[20]; 2.0 kg/ha,93%
same,mean % weed control,[20]; .5 kg/ha,81%
same,mean % weed control,[21]; 1.0 kg/ha,90%
same,mean % weed control,[21]; 2.0 kg/ha,94%
same,mean % weed control,[21]; .5 kg/ha,81%
same,mean % weed control,[22]; 1.0 kg/ha,85%
same,mean % weed control,[22]; 2.0 kg/ha,95%
same,mean % weed control,[22]; .5 kg/ha,67%
same,mean % weed control,[23]; 1.0 kg/ha,80%
same,mean % weed control,[23]; 2.0 kg/ha,92%
same,mean % weed control,[23]; .5 kg/ha,73%
